# Several values for one entry are separate records, joined by “and”; a condition that tells them apart may be missing. Identical values can stand only once. Inconclusive results and toxic doses are left out.
# System: B6C3F1 mice, intracerebral ependymoblastoma, median survival T/C
# Assay: NCI In Vivo Anticancer Drug Screen. Data for tumor model Ependymoblastoma (intracerebral) in B6C3F1 mice
# Conditions: endpoint: median survival time, higher = longer survival
# Experimental: The antitumor activity of compounds was measured in mice bearing transplantable tumors. Survival or tumor size were measured and the results are expressed as the measurement made in the treated group (T) divided by the measurement made in the vehicle treated control group (C). The tumor model used in this assay is Ependymoblastoma (intracerebral) in B6C3F1 mice
# [1] = dose: 32.0 mg/kg/injection, schedule: Q01DX005 (ip), vehicle: saline with Tween-80
# [2] = dose: 128.0 mg/kg/injection, schedule: Q01DX005 (ip), vehicle: saline with Tween-80
# [3] = dose: 1.56 mg/kg/injection, schedule: Q01DX005 (ip), vehicle: saline with Tween-80
# [4] = dose: 3.12 mg/kg/injection, schedule: Q01DX005 (ip), vehicle: saline with Tween-80
# [5] = dose: 6.25 mg/kg/injection, schedule: Q01DX005 (ip), vehicle: saline with Tween-80
# [6] = dose: 12.5 mg/kg/injection, schedule: Q01DX005 (ip), vehicle: saline with Tween-80
# [7] = dose: 25.0 mg/kg/injection, schedule: Q01DX005 (ip), vehicle: saline with Tween-80
# [8] = dose: 1.25 mg/kg/injection, schedule: Q01DX005 (ip), vehicle: Klucel (hydroxypropylcellulose) (HPC)
# [9] = dose: 2.5 mg/kg/injection, schedule: Q01DX005 (ip), vehicle: Klucel (hydroxypropylcellulose) (HPC)
# [10] = dose: 5.0 mg/kg/injection, schedule: Q01DX005 (ip), vehicle: Klucel (hydroxypropylcellulose) (HPC)
# [11] = dose: 10.0 mg/kg/injection, schedule: Q01DX005 (ip), vehicle: Klucel (hydroxypropylcellulose) (HPC)
# [12] = dose: 50.0 mg/kg/injection, schedule: Q01DX005 (ip), vehicle: saline with Tween-80
smiles,measurement,setting,value
CN(Cc1cnc2nc(N)nc(N)c2n1)c1c(Cl)cc(C(=O)NC(CCC(=O)O)C(=O)O)cc1Cl (configuration not stated),T/C,"dose: 16.0 mg/kg/injection, schedule: Q01DX005 (ip), vehicle: saline with Tween-80",95 % of control and 114 % of control
same,T/C,"dose: 16.0 mg/kg/injection, schedule: Q01DX005 (ip), vehicle: saline",100 % of control
same,T/C,"dose: 32.0 mg/kg/injection, schedule: Q01DX005 (ip), vehicle: Klucel (hydroxypropylcellulose) (HPC)",100 % of control
same,T/C,[1],97 % of control and 107 % of control
same,T/C,"dose: 32.0 mg/kg/injection, schedule: Q01DX005 (ip), vehicle: saline",92 % of control and 103 % of control
same,T/C,"dose: 64.0 mg/kg/injection, schedule: Q01DX005 (ip), vehicle: Klucel (hydroxypropylcellulose) (HPC)",104 % of control
same,T/C,"dose: 64.0 mg/kg/injection, schedule: Q01DX005 (ip), vehicle: saline with Tween-80",100 % of control and 107 % of control
same,T/C,"dose: 64.0 mg/kg/injection, schedule: Q01DX005 (ip), vehicle: saline",101 % of control and 104 % of control
same,T/C,"dose: 128.0 mg/kg/injection, schedule: Q01DX005 (ip), vehicle: Klucel (hydroxypropylcellulose) (HPC)",89 % of control
same,T/C,[2],98 % of control and 100 % of control
same,T/C,"dose: 128.0 mg/kg/injection, schedule: Q01DX005 (ip), vehicle: saline",100 % of control and 106 % of control
same,T/C,"dose: 256.0 mg/kg/injection, schedule: Q01DX005 (ip), vehicle: Klucel (hydroxypropylcellulose) (HPC)",96 % of control
Nc1nc(SCc2ccccc2F)c2ncn(C3OC(CO)C(O)C3O)c2n1 (configuration not stated),T/C,"dose: 0.78 mg/kg/injection, schedule: Q01DX005 (ip), vehicle: saline with Tween-80",101 % of control and 103 % of control
same,T/C,[3],100 % of control and 109 % of control
same,T/C,[4],93 % of control and 96 % of control
same,T/C,[5],91 % of control and 104 % of control and 120 % of control
same,T/C,[6],99 % of control
same,T/C,[7],122 % of control
CCCCCCCC(=O)O[C@H]1[C@H]2[C@@H](CC1(C)C)C(=O)[C@]13O[C@H]1C(=O)[C@]1(CO1)[C@]23C,T/C,"dose: 0.62 mg/kg/injection, schedule: Q01DX005 (ip), vehicle: Klucel (hydroxypropylcellulose) (HPC)",107 % of control
same,T/C,[8],106 % of control
same,T/C,[9],111 % of control
same,T/C,[10],110 % of control
same,T/C,[11],102 % of control
same,T/C,"dose: 20.0 mg/kg/injection, schedule: Q01DX005 (ip), vehicle: Klucel (hydroxypropylcellulose) (HPC)",101 % of control
S=P(N1CC1)(N1CC1)N1CC1,T/C,"dose: 8.0 mg/kg/injection, schedule: Q01DX005 (ip), vehicle: saline",169 % of control
CCC(=O)OCC1OC(n2cnc3c(=S)nc(N)[nH]c32)C(OC(=O)CC)C1OC(=O)CC (configuration not stated),T/C,"dose: 3.12 mg/kg/injection, schedule: Q01DX005 (ip), vehicle: Klucel (hydroxypropylcellulose) (HPC)",104 % of control
same,T/C,"dose: 6.25 mg/kg/injection, schedule: Q01DX005 (ip), vehicle: Klucel (hydroxypropylcellulose) (HPC)",110 % of control
same,T/C,"dose: 12.5 mg/kg/injection, schedule: Q01DX005 (ip), vehicle: Klucel (hydroxypropylcellulose) (HPC)",121 % of control
same,T/C,"dose: 25.0 mg/kg/injection, schedule: Q01DX005 (ip), vehicle: Klucel (hydroxypropylcellulose) (HPC)",120 % of control
O=P1(NCCCl)OCCC(OO)N1CCCl (configuration not stated),T/C,"dose: 40.0 mg/kg/injection, schedule: Q01DX001 (ip), vehicle: Klucel (hydroxypropylcellulose) (HPC)",106 % of control and 119 % of control
same,T/C,"dose: 80.0 mg/kg/injection, schedule: Q01DX001 (ip), vehicle: Klucel (hydroxypropylcellulose) (HPC)",115 % of control
same,T/C,"dose: 240.0 mg/kg/injection, schedule: Q01DX001 (ip), vehicle: Klucel (hydroxypropylcellulose) (HPC)",150 % of control
NC(=S)Nc1cccc2ccccc12,T/C,[3],92 % of control
same,T/C,[4],100 % of control and 88 % of control
same,T/C,[5],92 % of control and 93 % of control
same,T/C,[6],91 % of control
same,T/C,[7],88 % of control and 89 % of control
same,T/C,[12],91 % of control
Nc1ccc(S(N)(=O)=O)cc1,T/C,[7],98 % of control
same,T/C,[12],96 % of control and 103 % of control
same,T/C,"dose: 100.0 mg/kg/injection, schedule: Q01DX005 (ip), vehicle: saline with Tween-80",101 % of control and 103 % of control
same,T/C,"dose: 200.0 mg/kg/injection, schedule: Q01DX005 (ip), vehicle: saline with Tween-80",92 % of control and 102 % of control
same,T/C,"dose: 400.0 mg/kg/injection, schedule: Q01DX005 (ip), vehicle: saline with Tween-80",101 % of control and 107 % of control
same,T/C,"dose: 800.0 mg/kg/injection, schedule: Q01DX005 (ip), vehicle: saline with Tween-80",95 % of control
CCCCN(C)N=Nc1ccc([N+](=O)[O-])cc1C(N)=O,T/C,[1],114 % of control
same,T/C,[2],171 % of control
same,T/C,"dose: 256.0 mg/kg/injection, schedule: Q01DX005 (ip), vehicle: saline with Tween-80",158 % of control
CC1(C)OC2C(COC(=O)c3ccc([N+](=O)[O-])cc3)OC(NC(=O)N(CCCl)N=O)C2O1 (configuration not stated),T/C,"dose: 5.0 mg/kg/injection, schedule: Q01DX009 (ip), vehicle: saline",100 % of control
same,T/C,"dose: 10.0 mg/kg/injection, schedule: Q01DX009 (ip), vehicle: saline",207 % of control
same,T/C,"dose: 12.5 mg/kg/injection, schedule: Q01DX009 (ip), vehicle: saline with Tween-80",195 % of control
same,T/C,"dose: 25.0 mg/kg/injection, schedule: Q01DX009 (ip), vehicle: saline with Tween-80",248 % of control
CN(N=O)C(=O)N[C@@H](C=O)[C@@H](O)[C@H](O)[C@H](O)CO,T/C,"dose: 6.25 mg/kg/injection, schedule: Q01DX009 (ip), vehicle: citric acid",96 % of control
same,T/C,"dose: 12.5 mg/kg/injection, schedule: Q01DX005 (ip), vehicle: saline",103 % of control
same,T/C,"dose: 12.5 mg/kg/injection, schedule: Q01DX009 (ip), vehicle: citric acid",108 % of control
same,T/C,"dose: 25.0 mg/kg/injection, schedule: Q01DX005 (ip), vehicle: saline",122 % of control
same,T/C,"dose: 25.0 mg/kg/injection, schedule: Q01DX009 (ip), vehicle: citric acid",117 % of control
same,T/C,"dose: 64.0 mg/kg/injection, schedule: Q01DX001 (ip), vehicle: other",108 % of control
same,T/C,"dose: 75.0 mg/kg/injection, schedule: Q01DX001 (ip), vehicle: saline",121 % of control
same,T/C,"dose: 100.0 mg/kg/injection, schedule: Q01DX005 (ip), vehicle: saline",113 % of control
same,T/C,"dose: 128.0 mg/kg/injection, schedule: Q01DX001 (ip), vehicle: other",105 % of control
same,T/C,"dose: 200.0 mg/kg/injection, schedule: Q01DX005 (ip), vehicle: saline",113 % of control
same,T/C,"dose: 256.0 mg/kg/injection, schedule: Q01DX001 (ip), vehicle: other",101 % of control
same,T/C,"dose: 400.0 mg/kg/injection, schedule: Q01DX005 (ip), vehicle: saline",103 % of control
same,T/C,"dose: 512.0 mg/kg/injection, schedule: Q01DX001 (ip), vehicle: other",108 % of control
CC1CN1C(=O)NCCCCCCNC(=O)N1CC1C (configuration not stated),T/C,[8],105 % of control
same,T/C,[9],108 % of control
same,T/C,[10],120 % of control
same,T/C,[11],109 % of control
ClC(Cl)=C(Cl)Cl,T/C,"dose: 25.0 mg/kg/injection, schedule: Q01DX005 (ip), vehicle: other",110 % of control and 122 % of control
same,T/C,"dose: 50.0 mg/kg/injection, schedule: Q01DX005 (ip), vehicle: other",100 % of control and 113 % of control
same,T/C,"dose: 100.0 mg/kg/injection, schedule: Q01DX005 (ip), vehicle: other",101 % of control and 105 % of control
same,T/C,"dose: 200.0 mg/kg/injection, schedule: Q01DX005 (ip), vehicle: other",93 % of control and 97 % of control
CC(=O)CC(c1ccccc1)c1c(O)c2ccccc2oc1=O (configuration not stated),T/C,"dose: 0.05 mg/kg/injection, schedule: Q01DX005 (ip), vehicle: Klucel (hydroxypropylcellulose) (HPC)",113 % of control
same,T/C,"dose: 0.1 mg/kg/injection, schedule: Q01DX005 (ip), vehicle: Klucel (hydroxypropylcellulose) (HPC)",100 % of control and 108 % of control
same,T/C,"dose: 0.2 mg/kg/injection, schedule: Q01DX005 (ip), vehicle: Klucel (hydroxypropylcellulose) (HPC)",105 % of control and 110 % of control
same,T/C,"dose: 0.4 mg/kg/injection, schedule: Q01DX005 (ip), vehicle: Klucel (hydroxypropylcellulose) (HPC)",98 % of control and 104 % of control
same,T/C,"dose: 0.8 mg/kg/injection, schedule: Q01DX005 (ip), vehicle: Klucel (hydroxypropylcellulose) (HPC)",101 % of control and 88 % of control
same,T/C,"dose: 1.6 mg/kg/injection, schedule: Q01DX005 (ip), vehicle: Klucel (hydroxypropylcellulose) (HPC)",98 % of control
C=CCSc1ncnc2c1ncn2C1OC(CO)C(O)C1O (configuration not stated),T/C,"dose: 37.5 mg/kg/injection, schedule: Q01DX005 (ip), vehicle: saline with Tween-80",98 % of control
same,T/C,"dose: 75.0 mg/kg/injection, schedule: Q01DX005 (ip), vehicle: saline with Tween-80",114 % of control
same,T/C,"dose: 150.0 mg/kg/injection, schedule: Q01DX005 (ip), vehicle: saline with Tween-80",120 % of control
same,T/C,"dose: 300.0 mg/kg/injection, schedule: Q01DX005 (ip), vehicle: saline with Tween-80",106 % of control

# — PubChem BioAssay AID226 (DTP/NCI, 2004)
